Columns and labels:
[1] = test system: Subjects suffering from phonophobia due to a migraine; assay: Treatment of phonophobia due to a migraine, placebo-controlled subject study; format: in vivo; settings: 200 or 400 milligrams of ibuprofen in tablet form vs placebo; at time of two hours or longer
Source text: FIG. 2 depicts the percentage of subjects with reduced phonophobia over time over time after treatment with ibuprofen. Subjects suffering from phonophobia due to a migraine were either given a placebo or treated with 200 or 400 milligrams of ibuprofen in tablet form.

[2] = test system: Subjects suffering from photophobia due to a migraine; assay: Treatment of photophobia due to a migraine, placebo-controlled subject study; format: in vivo; settings: 200 or 400 milligrams of ibuprofen vs placebo; approximately 650 subjects; at time of two hours or longer
Source text: FIG. 1 depicts the percentage of subjects with reduced photophobia over time after treatment with ibuprofen. Subjects suffering from photophobia due to a migraine were either given a placebo or treated with 200 or 400 milligrams of ibuprofen. Approximately 650 subjects were in the study. Some subjects were given placebos, while others were given either 200 or 400 milligrams of ibuprofen.

SMILES: CC(C)Cc1ccc(C(C)C(=O)O)cc1 (centres unmarked) [ibuprofen]
- relief of phonophobia (percentage of subjects with reduced phonophobia over time, FIG. 2); text prints photophobia [1]: effective in relieving photophobia
- relief of photophobia (percentage of subjects with reduced photophobia over time, FIG. 1) [2]: effective in relieving photophobia
